System: Staphylococcus aureus ATCC 6538
Experiment: serial dilution test against Staphylococcus aureus ATCC 6538 (compatibility of antimicrobial agents with prototype vehicle)
Type: cell-based
Conditions: Id expressed as free base, IVa-IVc as cation (A=Br)
Procedure: Compatability of the antimicrobial agents of Formula Id, Formula IIa, Formula IVa (A=Br), Formula IVb (A=Br) and Formula IVc (A=Br) with a prototype vehicle of the invention was tested by a serial dilution test against Staphylococcus aureus ATCC 6538. Volumes of two milliliters were used. Dilutions were in tryptosephosphate broth. Incubation was for 16-18 hours at 37° C. Growth was verified with 2,3,5-triphenyltetrazoliumchloride. The inoculum was 1.8×10^5 viable cells per tube. There follows the formula of the prototype vehicle.

Row | Minimum Inhibitory Concentration (MIC) (added vehicle 125.0 μg/ml) | Minimum Inhibitory Concentration (MIC) (added vehicle 250.0 μg/ml) | Minimum Inhibitory Concentration (MIC) (added vehicle 500.0 μg/ml) | Minimum Inhibitory Concentration (MIC) (added vehicle 2000.0 μg/ml) | Minimum Inhibitory Concentration (MIC) (added vehicle 8000.0 μg/ml) | Minimum Inhibitory Concentration (MIC) (added vehicle 0 μg/ml) | Minimum Inhibitory Concentration (MIC) (added vehicle 15.6 μg/ml) | Minimum Inhibitory Concentration (MIC) (added vehicle 31.2 μg/ml) | Minimum Inhibitory Concentration (MIC) (added vehicle 62.5 μg/ml) | Compound
1 | 0.10 µg/mL | 0.10 µg/mL | 0.10 µg/mL | 0.10 µg/mL | 0.10 µg/mL | – | – | – | – | CCCCCCCNc1cc[n+](CCCCCCCCCCCC[n+]2ccc(NCCCCCCC)cc2)cc1 [Formula IVa]
2 | 0.5 µg/mL | – | – | – | – | 0.5 µg/mL | 0.5 µg/mL | 0.5 µg/mL | 0.5 µg/mL | CCCCCCCCNc1cc[n+](CCCCCCCCCC[n+]2ccc(NCCCCCCCC)cc2)cc1 [Formula IVb]
